# From patent US20220370385A1, “COMPOSITIONS FOR USE IN INHIBITING SRC KINASE AND TREATING AND PREVENTING ASSOCIATED DISORDERS” (Enzene Biosciences Ltd., priority 2019, published 2022)
# Test system: MDA-MB-468 cells
# Test: MDA-MB-468 cell viability, CellTiter-Glo, 24 hrs
# Format: cell-based, human
# Settings: 24 hrs incubation
# Procedure: MDA-MB-468 cells, isolated from a pleural effusion of a patient with metastatic adenocarcinoma of the breast, is a triple negative breast cancer (TNBC) cell line. The IC 50 value of E05 or lapatinib (Sigma) or the structural analogues of E05 were tested in this cell line.
# Briefly, MDA-MB-468 cells (ATCC #HTB-32) were seeded with a density of 5,000 cells per well in a 96 well white plate (Costar Cat #3917) in DMEM media supplemented with 10% FBS (assay medium). The plates were incubated at 37° C., 5% CO2 for 24 hr. E05 and analogues were diluted in the assay medium and added to the respective wells of the assay plate. The plates were further incubated at 37° C., 5% CO2 for 24 hrs. After the incubation, the cell viability was assessed using CellTiter-Glo® and the plates were read for luminescence using Cytation 5 (Biotek). The relative luminescence unit (RLU) obtained was plotted against the concentration and EC50 values were estimated using Graphpad Prism 5 software (FIG. 15 and Table 2).
Activity (EC50),EC50 (Homo sapiens) [µM],SMILES
Inactive,–,"O=C(O)CCc1ccc(O)cc1 [E05_D, 3-(4-Hydroxyphenyl)-propionic acid (Phloretic acid)]"
–,103,"Oc1ccccc1O [E05_E, 1,2-Dihydroxybenzene (Catechol)]"
Inactive,–,"COc1ccc(C(=O)O)cc1O [E05_F, 3-Hydroxy-4-methoxy-benzoic acid (Isovamillic acid)]"
Inactive,–,"COc1cc(C(=O)O)ccc1O [E05_G, 4-Hydroxy-3-methoxy-benzoic acid (Vanillic acid)]"
Inactive,–,"O=C(O)c1ccc(O)cc1O [E05_H, 2,4-Dihydroxybenzoic acid]"
